Measurements reported in patent US20110142884A1, “Materials and Methods for Making Improved Micelle Compositions” (The Board of Trustees of the University of Illinois, priority 2002, published 2011).
In brackets after ≈: the same amount, converted by molar mass. No end group written: not given here.

Legend:
[1] = Circular dichroism (CD) spectral analysis of peptide conformation, % helicity; type: physicochemical; conditions: room temperature
Method: According to this example, circular dichroism (CD) experiments were performed to determine the conformation changes of VIP in phospholipid micelles, pH and temperature changes, and in aqueous solutions. CD spectra were recorded on a JASCO J-700 spectropolarimeter using a fused quartz cell of 1 cm pathlength. Spectra in 0.15 N saline (pH 6.8) and 5 mM Hepes buffer (pH 7.4) were measured at a peptide concentration of 4 μM and at a lipid concentration of 1 mM. The effects of CaM, pH (6.8 or 7.4) and temperature (25° C. or 37° C.) on VIP conformation were also studied. The conformation of VIP fragments was likewise studied. All measurements were carried out at room temperature (˜25° C.) unless otherwise noted. A bandwidth of 1.0 nm and a step resolution of 0.5 nm were used to collect an average of 9 accumulations/sample at the […] (200-260 nm wavelength). The peptide spectra shown have the background buffer scans, and empty vesicle scans subtracted and were smoothed using the noise reduction function. The temperature during spectral analysis was maintained by using a circulating water bath attached to a jacket surrounding the fused quartz CD cell. The percent helical characterization of VIP was determined by a method of Haghjoo et al., Peptide Research 9 (6):327-331 (1996): % helicity=[−(θ208+4000)/29 000]*100 and are reported in table 1.
According to the example, CD was used to determine the conformation of VIP in saline, Hepes buffer and phospholipid micelles at room temperature and at 37° C. The CD spectra analysis was performed after 13 μg of human VIP incubated with 1 ml PEG-DSPE (1 μmol) micelles for 30 min at room temperature as determined by preliminary studies. A bandwidth of 1.0 nm and a step resolution of 0.5 nm were used to collect an average of 9 accumulations/sample at near UV range (200-260 nm). The temperature was maintained during spectral analysis by a circulating water bath attached to a jacket surrounding the fused quartz CD cell. The evaluation of VIP molecule conformation in SSM by using circular dichroism was successful because the distortion caused by spherical particles was eliminate due to the small size and univesicular structure of the SSM. […] The phospholipid micelles were ideal in our study of VIP conformation since it provided a hydrophobic core similar to the phospholipid bilayer of the SSL. Moreover, both the negative charge, and the hydrophilic layer provided by the PEG mimic the conditions of our SSL and make it possible to infer the VIP conformational results.
According to this example, the method of example 4 was repeated to determine the conformation of VIP in saline and phospholipid micelles plus calmodulin (CaM). CD spectra measurements were performed after 13 μg/ml of VIP was incubated with 1.0 μmol/ml of phospholipid micelles for 30 min followed by 10^−10 M CaM incubated with VIP in phospholipid micelles for 2 h at 4° C. (conjugation paper). A bandwidth of 1.0 nm and a step resolution of 0.5 nm were used to collect the average of 9 accumulations/sample at near UV range (200-260 nm).
According to this example the method of example 4 was repeated to determine the conformation of VIP fragments in saline and phospholipid micelles. CD spectra measurements were performed after incubation of VIP fragments with phospholipid micelles, at a molar concentration equivalent to VIP (i.e. 9 μg/ml for VIP10-28 fragment and 6 μg/ml for VIP1-12 fragment), for 30 min. A bandwidth of 1.0 nm and a step resolution of 0.5 nm were used to collect the average of 9 accumulations/sample at near UV range (200-260 nm). Specifically, CD spectra of human VIP fragment (1-12) and (10-28) in the presence of phospholipid micelles are shown in FIG. 5. […] These effects correlate well with the % helicity of VIP fragments determined in saline and in the presence of phospholipids (Table 1). […]

[2] = system: second order arterioles of the hamster cheek pouch microcirculation; experiment: Hamster cheek pouch microcirculation, arteriolar diameter during suffusion; type: in vivo; conditions: suffusion of 5 nmol for 7 min
Method: According to this example, the vasorelaxant effects of VIP in a SSM were determined according to the following method. Specifically, adult male golden Syrian hamsters were purchased from Sasco (Omaha, Nebr.). Adult male hamsters with spontaneous hypertension and their normotensive controls were purchased from the Canadian Hybrid Farms (Halls Harbour, NS, Canada). Hypertensive animals have been identified after cross-breeding of hamsters with hereditary cardiomyopathy and normal golden Syrian hamsters. These albino animals have previously been used in our laboratory (Rubinstein et al., Biochem. Biophys. Res. Commun. 183:1117-1123 (1992); Artwohl et al., FASEB J. 10:A629 (1996)). Animals were anesthetized with pentobarbital sodium (6 mg/100 g body weight, i.p.). A tracheotomy was performed to facilitate spontaneous breathing. A femoral vein was cannulated to inject supplemental anesthesia during the experiment (2-4 mg/100 g body weight/h). Body temperature was maintained constant (37-38° C.) and monitored via heating pad and a feed back controller throughout the experiment.
The bioactivity of the VIP in SSM by diffusing it in situ was determined by visualization of the microcirculation of the hamster cheek pouch. The microcirculation of the cheek pouch was visualized locally by a method previously developed in our laboratory (Suzuki et al., Life Sci. 57:1451-1457 (1995); Suzuki et al., Am. J. Physiol. 271:R393-R397 (1996); and Suzuki et al., Am. J. Physiol. 271:H282-H287 (1996)). Briefly, the left cheek pouch was spread over a small plastic baseplate, and an incision was made in the outer skin to expose the cheek pouch membrane. The connective avascular tissue layer was removed, and a plastic chamber was placed over the baseplate and secured in place by suturing the skin around the upper chamber. This forms a triple-layered complex: the baseplate, the exposed cheek pouch membrane, and the upper chamber. After these initial procedures, the hamster is transferred to a heated microscope stage. The chamber was connected to a reservoir containing warmed bicarbonate buffer (37-38° C.) that allowed continuous suffusion of the cheek pouch. The buffer was bubbled continuously with 95% N2-5% CO2 (pH 7.4). […]
The cheek pouch microcirculation was epi-illuminated with a 100-W mercury light source and viewed through a microscope (Nikon, Tokyo, Japan) at a magnification of ×40. […] The inner-wall diameter of second order arterioles ([…]), which modulated vascular resistance in the cheek pouch, (Raud, Acta Physiol. Scand. (Suppl.) 578:1-58 (1989); Suzuki et al., Life Sci. 57:1451-1457 (1995); Suzuki et al., Am. J. Physiol. 271:R393-R397 (1996)) was measured from the video display of the microscope image using a videomicrometer (VIA 100; Boeckeler Instruments, Tucson, Ariz.). […]

physchem = conditions: for solubility: aqueous with cosolvent or surfactant or cyclodextrin
Method: Solubilization potential of both micelle compositions for a model drug was measured by HPLC after separation of the unincorporated drug.
Excess drug was removed by centrifugation and the supernatant was analyzed by HPLC. […] HPLC eluent was measured with adsorption at 254 nm.
According to this example, micelle compositions of the invention were further characterized. Particularly, the physiochemical properties of sterically stabilized micelles prepared with DSPE conjugated to molecular weight 2000, 3000, and 5000 PEG were analyzed. The critical micelle concentration (CMC) of phospholipids was determined at pH 7.4 and 25° C. using a water-insoluble fluorescent probe (1,6-diphenyl-1,3,5-hexatriene). Micellar size was determined by quasi-elastic light scattering.
The solvent was then removed by vacuum rotary evaporation under a stream of argon to form a dry film. This dry film was further dried under vacuum overnight to remove any traces of remaining solvent. The dried film was rehydrated with isotonic 0.01M HEPES buffer, pH 7.4. The solution was then flushed with argon, sealed and equilibrated for 12 h at room temperature. The unsolubilized excess paclitaxel was removed by centrifugation at 13,000 g for 5 min to obtain a clear dispersion.
The solubilization potentials of SSMM and SSM for paclitaxel were determined by RP-HPLC. The clear aqueous dispersion was diluted with methanol. 20 μl of each sample was injected at least three times into a μBondapak C-18 column, 3.9 mm×30 cm (Waters, Milford, Mass.) equipped with a C18 column guard. The column was eluted with acetonitrile/water (60:40) at 1.0 ml/min (Waters 600). Detection was by UV absorption measurement at 227 nm (Waters 490). Peak areas were calculated by interfacing the detector to an electronic integrator (Hewlett Packard). The drug concentration was calculated from standard curves.

anesthetized rats = experiment: Infusion in anesthetized rats, haemodynamics by radioactive microsphere technique; type: in vivo, rat; conditions: 50 ng/kg/min infused for 30 minutes
Method: According to this aspect of the invention, the effect of infusion of enthelin-1 (ET-1) alone or in a SSM formulation on mean arterial pressure (MAP), cardiac output(CO), total peripheral resistance (TPR), and regional blood circulation in anesthetized rats was examined using a radioactive microsphere technique. SSM with or without ET-1 were prepared according to the method described in Example 11 using DSPE-PEG in saline. Treatments for individual groups consisted of: (i) control, SSM at 2.7 mg/ml (n=6); (ii) ET-1 infusion at 50 ng/kg/min (n=5), and (iii) ET-1 at 50 ng/kg/min in SSM (n=8). Drugs were infused at 0.1 ml/min for 30 minutes.

Row | Compound | Conformation from CD spectrum in the presence of phospholipid micelles (SSM) [1] | % Helicity (in the presence of) Phospholipids [1] [%] | % Helicity (in the presence of) Saline [1] [%] | Conformation from CD spectrum in saline [1] | other results
1 | NC(=O)CC[C@@H]1NC(=O)[C@H](Cc2ccccc2)NC(=O)[C@H](Cc2ccc(O)cc2)NC(=O)[C@@H](N)CSSC[C@@H](C(=O)N2CCC[C@H]2C(=O)N[C@@H](CCCN=C(N)N)C(=O)NCC(N)=O)NC(=O)[C@H](CC(N)=O)NC1=O [Vasopressin] | primarily random coil conformation | 16 | 8 | primarily random coil conformation | –
2 | secretin | appreciable α-helix conformation | – | – | unordered | increase in arteriolar diameter from baseline [2]: 10.3±0.6%
3 | VIP1-12: VIP fragment 1-12 (HSDAVFTDNYTR; Vasoactive intestinal peptide; UniProt P01282 125-136, looked up, fragment) | primarily random coil structure | 0.05 | 0 | primarily random coil structure | –
4 | calmodulin [CaM] | – | 0 | 0 | – | –
5 | C=C(C)[C@@H]1CC[C@]2(C(=O)O)CC[C@]3(C)[C@H](CC[C@@H]4[C@@]5(C)CC[C@H](O)C(C)(C)[C@@H]5CC[C@]43C)[C@@H]12 [betulinic acid] | – | – | – | – | solubility (physchem; solubility in either SSM or SSC): 250 µg/mL (≈ 547 µM)
6 | enthelin-1 (CSCSSLMDKECVYFCHLDIIW; ends and bridges not checked; cysteine pairing not given here; UniProt P05305 53-73, looked up) [ET-1] | – | – | – | – | Renal vascular resistance (anesthetized rats): 76%; increase in TPR (anesthetized rats): 102%; vascular resistance in brain (anesthetized rats): 62%
7 | CC(=O)[C@H]1CC[C@H]2[C@@H]3CCC4=CC(=O)CC[C@]4(C)[C@H]3CC[C@]12C [progesterone] | – | – | – | – | solubility (physchem; thermodynamic from solid, solubility in 10 mg/ml DSPE-PEG): ≤ 198 µg/mL; solubility (physchem; thermodynamic from solid, solubility of progesterone in DSPE-PEG micelles): 198 ± 7 µg/mL (≈ 630 µM); solubility (physchem; thermodynamic from solid, solubility of progesterone in bile salt micelles): 21 µg/mL
8 | C=C(C)[C@@H]1CC[C@]2(C(=O)O)CC[C@]3(C)[C@H](CC[C@@H]4[C@@]5(C)CC[C@H](O)C(C)(C)[C@@H]5CC[C@]43C)[C@@H]12 [betullinic acid] | – | – | – | – | solubility in 10 mg/ml DSPE-PEG (physchem): up to 200 μg/ml
